Experimental data: patent US20070098782A1, “Ramipril Formulation” (Selamine Limited, priority 2005, published 2007)
Blank lines part the entries; values can stand above or below the compound they belong to.

Columns and labels:
[1] = 1 mg/ml ramipril solution in buffer, principal impurity after 12 hours at 50° C.; type: physicochemical
Description: An experiment was carried out in which 50 mg of ramipril was dispersed in 50 ml water and known concentrations of buffer were added. The solutions were placed in a stoppered bottle and stored for 12 hours at 50° C.

[2] = target: angiotensin converting enzyme (ACE) (Homo sapiens, UniProt P12821); conditions: cited from earlier work
Sequence of angiotensin converting enzyme (ACE) (P12821 30-1306, species assumed): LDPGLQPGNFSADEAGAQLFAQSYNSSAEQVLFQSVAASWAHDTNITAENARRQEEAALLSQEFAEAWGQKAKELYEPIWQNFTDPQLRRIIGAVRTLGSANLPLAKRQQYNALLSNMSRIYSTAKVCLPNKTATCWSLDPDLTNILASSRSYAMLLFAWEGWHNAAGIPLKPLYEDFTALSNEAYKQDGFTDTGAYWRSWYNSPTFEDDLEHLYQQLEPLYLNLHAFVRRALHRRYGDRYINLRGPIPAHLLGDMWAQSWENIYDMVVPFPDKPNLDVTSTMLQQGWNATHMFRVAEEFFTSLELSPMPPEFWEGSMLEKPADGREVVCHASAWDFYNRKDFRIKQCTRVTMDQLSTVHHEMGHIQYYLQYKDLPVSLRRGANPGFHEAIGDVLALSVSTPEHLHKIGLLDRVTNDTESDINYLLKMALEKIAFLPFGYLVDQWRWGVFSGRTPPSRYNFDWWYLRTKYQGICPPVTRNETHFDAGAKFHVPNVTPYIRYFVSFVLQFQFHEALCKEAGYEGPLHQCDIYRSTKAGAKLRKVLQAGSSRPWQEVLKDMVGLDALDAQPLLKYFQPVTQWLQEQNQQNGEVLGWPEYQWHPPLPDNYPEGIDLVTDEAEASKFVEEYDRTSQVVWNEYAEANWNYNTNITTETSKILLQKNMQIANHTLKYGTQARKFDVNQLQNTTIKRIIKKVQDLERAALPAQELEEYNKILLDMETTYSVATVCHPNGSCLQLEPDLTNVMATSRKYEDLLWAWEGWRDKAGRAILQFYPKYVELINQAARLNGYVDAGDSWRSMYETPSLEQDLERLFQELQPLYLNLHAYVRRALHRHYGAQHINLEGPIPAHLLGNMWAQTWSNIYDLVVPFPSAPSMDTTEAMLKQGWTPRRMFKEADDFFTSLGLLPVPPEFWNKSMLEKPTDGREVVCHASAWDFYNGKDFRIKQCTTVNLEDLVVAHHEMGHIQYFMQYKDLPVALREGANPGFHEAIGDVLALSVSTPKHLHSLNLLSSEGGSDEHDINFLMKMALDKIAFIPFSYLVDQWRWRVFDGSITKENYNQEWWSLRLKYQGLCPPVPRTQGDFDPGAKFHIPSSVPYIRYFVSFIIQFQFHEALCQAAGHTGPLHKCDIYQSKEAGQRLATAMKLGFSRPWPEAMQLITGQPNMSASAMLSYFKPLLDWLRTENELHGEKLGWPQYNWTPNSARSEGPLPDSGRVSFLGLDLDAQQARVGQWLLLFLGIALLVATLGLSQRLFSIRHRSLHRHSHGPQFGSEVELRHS

[3] = buffer Sodium carbonate 0.24 mg/ml
[4] = buffer Sodium carbonate 0.74 mg/ml
[5] = buffer Sodium carbonate 1.00 mg/ml
[6] = buffer Sodium citrate 0.72 mg/ml
[7] = buffer Sodium citrate 1.00 mg/ml
[8] = buffer Sodium citrate 1.90 mg/ml

Impurity D ([1]; buffer L arginine 1.44 mg/ml): 0.16%
Impurity E ([1]; buffer L arginine 1.44 mg/ml): 13.7%
Impurity D [1, 3]: 0.22%
Impurity E [1, 3]: 9.9%
Impurity D [1, 4]: 0.19%
Impurity E [1, 4]: 11.3%
Impurity D [1, 5]: 0.17%
Impurity E [1, 5]: 15.2%
Impurity D [1, 6]: 0.22%
Impurity E [1, 6]: 8.2%
Impurity D [1, 7]: 0.23%
Impurity E [1, 7]: 8.4%
Impurity D [1, 8]: 0.20%
Impurity E [1, 8]: 7.5%
Compound: CCOC(=O)[C@H](CCc1ccccc1)N[C@@H](C)C(=O)N1[C@H](C(=O)O)C[C@@H]2CCC[C@@H]21 [Ramipril, (2S,3aS,6aS)-1[(S)-N-[(S)-1-carboxy-3-phenylpropyl]alanyl] octahydrocyclopenta[b]pyrrole-2-carboxylic acid, 1-ethyl ester]

Compound: C[C@H](N[C@@H](CCc1ccccc1)C(=O)O)C(=O)N1[C@H](C(=O)O)C[C@@H]2CCC[C@@H]21 [ramiprilat]
potency as an ACE inhibitor relative to the parent compound ramipril ([2]; compared with ramipril): up to 6 times

Compound: ramipril diketopiperazine
activity as an ACE inhibitor [2]: not active
